Experimental data reported in patent publication US10577387B1, “Platinum (II) complexes containing N-heterocyclic carbene ligand and pincer ligands, synthesis, and their applications in cancer treatment” (priority 2018, dated 2020).

Experiments:
NCI-H460 = test: MTT assay, in vitro cytotoxicity; assay type: cell-based, human; settings: 72 h
Method: (§1) The cell lines were maintained in cell culture media (Minimum essential medium (MEM) for HeLa; and Dulbecco's modified eagle medium (DMEM) for MDA-MB-231 and MiHa, Roswell Park Memorial Institute (RPMI) medium for NCI-H460 and HCT116 supplemented with fetal bovine serum (10 vol %), streptomycin (100 μg/ml) and penicillin (100 U/ml) in an incubator (5% CO2) at 37° C.
(§2) The inhibition of cell growth by different metal complexes were determined by MTT assay. Firstly, 4×10^3 to 8×10^3 cells were seeded on 96-well culture plates for 24 h. Then, different concentrations of complex was added into different wells by serial dilution and the cells were incubated with complex for 48-72 h. After that, 10 μl of MTT solution (5 mg/ml) was added per well and the plate was incubated for 4 h at 37° C. in a humidified atmosphere of 5% CO2. Viable cells with active metabolism converted MTT into a purple colored formazan product. In order to solubilize the formazan for absorbance readings, 100 μl of SDS (0.1 g/ml, 0.01 M HCl) was added per well and the plate was kept in a dark and humidified chamber overnight. Finally, the absorbance at 580 nm of each well was monitored by microtiter plate reader.
(§3) The growth inhibition by a specific complex was represented by IC50 (concentration of a complex causing 50% inhibition of cell growth). Each experiment was repeated three times and the results were expressed as means±standard deviation (SD).

HeLa = test: MTT assay, in vitro cytotoxicity; assay type: cell-based, human; settings: 72 h
Method: as §1, §2, §3

HCT116 = test: MTT assay, in vitro cytotoxicity; assay type: cell-based, human; settings: 72 h
Method: as §1, §2, §3

MiHa = test: MTT assay, in vitro cytotoxicity, non-tumorigenic hepatocyte; assay type: cell-based, human; settings: 72 h
Method: as §1, §2
The growth inhibition by a specific complex was represented by IC50 (concentration of a complex causing 50% inhibition of cell growth). […]

MDA-MB-231 = test: MTT assay, in vitro cytotoxicity / cell growth; assay type: cell-based, human; settings: for cell growth inhibition, agent alone: 1b at sub-cytotoxic concentration, LY294002 or U0126 10 or 20 μM
[1] = system: FAK, ERK, Akt in MDA-MB-231 cells; test: Western blot of phosphorylated and total FAK, ERK and Akt; assay type: cell-based, human
Method: (§4) MDA-MB-231 cells (5×10^5 cells) were incubated with Pt compound and washed with phosphate-buffered saline (PBS), lysed with radioimmunoprecipitation assay buffer (1% Triton X-100, 10% glycerol, 150 mM NaCl, 5 mM sodium fluoride, 1 mM sodium vanadate and protein inhibitor cocktail) for 15 min at 4° C. The cell lysates were centrifuged at 13,000 rpm for 15 min at 4° C. The protein concentrations of the extracts were determined using a BCA protein assay kit (Beyotime, Haimen, China). Specific amount of protein sample (30 μg) was then boiled for 5 min in a 5× sample buffer (50 mM Tris (pH 7.4), 4% sodium dodecyl sulfate (SDS), 10% glycerol and 50 μg/mL bromophenol blue) at a volume ratio of 4:1. Protein samples were subjected to SDS-polyacrylamide gel electrophoresis (PAGE), transferred to polyvinylidene difluoride membranes and immunoblotted with primary anti-bodies. After further incubation with horseradish peroxidase (HRP)-conjugated secondary antibody, the blot was stained with a chemiluminescent detection reagent and subsequently analyzed by enhanced chemiluminescence. Protein expression was visualized on Kodak Biomax X-ray film.

[2] = system: MDA-MB-231 xenograft tumor tissues; test: Immunohistochemical analysis of tumor tissues from treated mice; assay type: in vivo, nude mice; settings: 2.5 and 5.0 mg/kg
in vitro = assay type: cell-based; settings: mouse
Method: (§5) At the same time, the cell viability under the same condition was determined by MTT assay. Again, around 4×10^4 MS-1 cells in 100 μL DMEM medium was pre-mixed with different concentrations of complex and they were seeded into 96-well plate. After 2 h, the medium was removed and fresh medium with 10% MTT was added per well and the plate was incubated for 4 h at 37° C. in a humidified atmosphere of 5% CO2. In order to solubilize the formazan for absorbance readings, 100 μl of SDS (0.1 g/ml, 0.01 M HCl) was added per well and the plate was kept in a dark and humidified chamber overnight. Finally, the absorbance at 580 nm of each well was monitored by microtiter plate reader. Each experiment was repeated three times and the results were expressed as means±standard deviation (SD).

MS1 cells [3] = test: in vitro; assay type: cell-based
Method: as §5

HUVECs [4] = test: Conditioned medium (VEGF)-mediated tube formation; assay type: cell-based, human; settings: MDA-MB-231 conditioned medium VEGF 13.4 ng/mL, 24 h, sub-cytotoxic
Method: (§6) Human umbilical vein endothelial cells (HUVEC) were cultured in endothelial cell growth medium (ECGM): M199 medium (Life Technologies, Invitrogen) supplemented with 15 vol % fetal bovine serum at 37° C. in a humidified (5% CO2, 95% air) atmosphere.

HUVECs [5] = test: Conditioned medium (VEGF)-mediated migration; assay type: cell-based, human; settings: MDA-MB-231 conditioned medium VEGF 13.4 ng/mL, 24 h, sub-cytotoxic
Method: as §6

MDA-MB-231 cells [6] = test: Wound closure (scratch) migration assay; assay type: cell-based, human; settings: for inhibition of migration, agent alone: 1b at sub-cytotoxic concentration, LY294002 or U0126 10 or 20 μM
Method: MDA-MB-231 cells were cultured in 6-well plate and allowed to form a confluent monolayer for 24 h. After serum starved for 4 h, cells were scratched by pipette tips, washed with PBS and photographed by using a fluorescence microscope (20× objective). The fresh medium supplemented with 10 vol % FBS was added into each well with different concentrations of Pt complex. After incubated for 24 h, cells were photographed again at three random areas. Then the migrated cells were quantified by manual counting and inhibition ratio was expressed as % of control.

MS1 cells [7] = test: Tube formation assay; assay type: cell-based; settings: 3 h, sub-cytotoxic concentrations
Method: The In Vitro Angiogenesis Kit (CaymanChemical) was used in the tube formation assay. Firstly, the ECMatrix solution and 10× Diluent Buffer were mixed in 9:1 (v/v) ratio on ice. Then 50 μL of mixture was transferred into each well of 96-well plate and incubated at 37° C. for 1 h for polymerization. Then, around 4×10^4 of MS-1 cells in 100 μL DMEM medium was pre-mixed with different concentrations of complex and that cell-complex containing medium was added on the top of the polymerized matrix. […]

[8] = system: PARP, caspases 3 and 9 in MDA-MB-231 cells; test: Western blot of apoptosis-related proteins; assay type: cell-based, human; settings: 48 h
Method: as §4

HeLa cells [9] = test: JC1 staining (mitochondrial membrane potential); assay type: cell-based, human; settings: with increasing dosage, 2 h
HUVECs [10] = test: Conditioned medium (VEGF)-mediated transwell invasion; assay type: cell-based, human; settings: MDA-MB-231 conditioned medium VEGF 13.4 ng/mL, 24 h, sub-cytotoxic
Method: as §6
Effects of Pt complex on the invasion of MDA-MB-231 or HUVECs cells were performed on Transwell Boyden chamber (8 μm pore, Corning, Lowel, Mass.) pre-coated with matrigel for 4 h at 37° C. The cell suspension (2.5×10^5 cells/ml, 100 μL) in serum free medium (SFM) was placed to the upper compartment of chamber. The bottom chambers were supplemented with 500 μl complete medium (10 vol % FBS) or conditioned medium (with VEGF=13.4 ng/ml from MDA-MB-231 cells) containing indicated concentrations of Pt complex. After incubated for 24 h, the non-migrant cells from the upper face were scraped using a cotton swab. The invaded cells on the lower face were fixed with methanol, stained with Giemsa, photographed by a phase-contrast microscope (200×, Nikon TS 100). The invaded cells were quantified by manual counting and inhibition ratio was expressed as % of control.

MDA-MB-231 cells [11] = test: Transwell invasion assay; assay type: cell-based, human; settings: for inhibition of invasion, agent alone: 1b at sub-cytotoxic concentration, LY294002 or U0126 10 or 20 μM
[12] = Blood biochemistry, systemic toxicity; settings: treated vs untreated mice bearing MDA-MB-231 xenografts
HeLa cells [13] = test: Confocal fluorescence microscopy co-localization with organelle probes; assay type: cell-based, human; settings: 1b 5 μM
Method: HeLa cells (2×10^5 cells) were seeded in a one chamber slide (Nalgene; Nunc) with culture medium (2 mL per well) and incubated at 37° C. in a humidified atmosphere of 5% CO2/95% air for 24 h. After treating with 1b (5 μM) for 1 h, ER-tracker™ red (1 μM), Mitotracker® deep red (50 nM) or Lysotracker® deep red (50 nM) were incubated with cells for 10 min, and then the cells were washed with PBS twice. Confocal fluorescence images were captured using a Carl Zeiss LSM510 Meta confocal microscope with the use of 488 and 543 nm/633 nm lasers for the excitation of complex 1b and red/deep red tracker respectively, under a Plan-Apochromat 63×1.40NA oil-immersion objective.

MDA-MB-231 xenografts = test: In vivo tumor growth inhibition; set-up: species or system nude mice; settings: 5 and 2.5 mg/kg
Method: All experiments were followed to the guidelines of the Laboratory Animal Unit of the University of Hong Kong. Ten mice were randomly divided into two groups (5 mice for each group) for two different treatment conditions.
Around 4×10^6 of cancer cells in 100 μL of PBS were injected into right back flanks of the mice through subcutaneous injection. […] The size of the tumors were measured by a ruler every 2-3 days until the mice were sacrificed. The longest diameter (a) and shortest diameter (b) of the tumor would be picked up and the volume of the tumor could be calculated through the following formula: V=0.52×ab^2
It should be noted that the body weight of the mice were also be recorded in order to examine the side effect of the drugs.
To calculate the inhibition effect of the drug, the ratio of enlargement of tumor volume between the drug treatment group and control group would be applied in the following formula:
where Vt and Vt′ are the tumor volumes of drug treatment and control group respectively; V0 and V0′ are the tumor volume at the 0 day of drug treatment and control group respectively.

[14] = system: PERK, eIF2α, CHOP in MDA-MB-231 cells; test: Western blot of ER stress-related proteins; assay type: cell-based, human; settings: 5 uM for 6, 12, 24 and 48 h
Method: as §4

chicken CAM = test: Chorioallantoic membrane (CAM) assay, ex vivo angiogenesis; settings: VEGF 50 ng/mL, one day
Method: The effect of Pt complex on the ex vivo angiogenesis was determined by chorioallantoic membrane (CAM) assay. Briefly, fertilized chicken eggs were incubated at 37° C. in a humidified incubator with forced air circulation. After 5-6 days, eggs were cracked open and methylcellulose discs containing different concentrations of 1d (40 μl/egg) and VEGF (50 ng/mL) were gently implanted on top of chicken CAM. After one day incubation, the CAM was observed under a microscope (Olympus BX 40) and photographed. VEGF treatment group was used as a positive control. Three eggs per group were used in each experiment and three independent experiments were performed.

[15] = system: uPA, MMP-9, TIMP-1 in MDA-MB-231 cells; test: Western blot of uPA, MMP-9 and TIMP1; assay type: cell-based, human
Method: as §4

[16] = system: p15, cyclin D1/D3, CDK 4/6 in MDA-MB-231 cells; test: Western blot of G0/G1 phase-related proteins; assay type: cell-based, human; settings: 24 h
Method: as §4

[17] = different concentrations 24 h or 2 μM over time
[18] = increasing concentration (24 h) or incubation time (2 μM)

## N.N.[Cl][Pt][Cl] [Cisplatin, cis-diamminedichloroplatinum]
NCI-H460
  IC50: 24.9 ± 3.19 µM
HeLa
  IC50: 12.9 ± 3.84 µM
HCT116
  IC50: 11.8 ± 1.36 µM
MiHa
  IC50: > 100 µM
MDA-MB-231; MTT, 72 h
  IC50: 77.2 ± 7.82 µM

## CCCCN1C=CN(CCCC)[CH]1[Pt]12[n]3c(c4ccccc4c3=Nc3cccc[n+]31)=Nc1cccc[n+]12 [Complex 1b]
[1]; [17]
  phosphorylation of FAK at Tyr397: significantly suppress
  phosphorylation of FAK at Tyr925 and Tyr576/577: moderately inhibited
  total protein level of FAK: little effect
[1]; dose- and time-dependent
  phosphorylation of Akt: significantly inhibited
  phosphorylation of ERK: significantly inhibited
[2]
  CD34 staining, blood vessel formation in tumors: significant inhibition of blood vessel formation
  DNA fragmentation (TUNEL assay) in tumor tissues: higher levels
  caspase-3 in tumor tissues: higher levels
[2]; vs control mice
  expression of Ki67 in tumor tissues: decrease
In vitro
  viability at 3 h: > 90%
MS1 cells [3]
  cell death of MS1 cells: no significant cell death
HUVECs [4]
  CM-mediated tube formation of HUVECs: significantly suppressed
HUVECs [5]
  CM-mediated migration of HUVECs: significantly suppressed
MDA-MB-231 cells [6]
  inhibition of migration, agent alone: notable inhibition
MDA-MB-231 cells [6]; sub-cytotoxic 0.25-1 μM, 24 h
  migration of MDA-MB-231 cells: effectively inhibited
MS1 cells [7]
  angiogenesis (tube formation) of MS1 cells: significant inhibition
[8]
  cleavage of PARP and caspases 3 and 9: cleaved
HeLa cells [9]
  JC1 ratio of orange to green fluorescence: decrease
HUVECs [10]
  CM-mediated invasion of HUVECs: significantly suppressed
MDA-MB-231 cells [11]
  inhibition of invasion, agent alone: notable inhibition
MDA-MB-231 cells [11]; sub-cytotoxic concentrations, 24 h
  invasion of MDA-MB-231 cells: significant inhibition
[12]
  blood glucose (GLU): higher level
  blood urea nitrogen (BUN): higher level
  plasma level of aspartate aminotransferase (AST): lower
  plasma level of blood fat (CHOL): lower
  plasma level of creatine kinase (CK): lower
HeLa cells [13]
  Pearson's correlation coefficient for co-localization with ER-Tracker: 0.83
MDA-MB-231 xenografts
  death or body weight loss of mice during the treatment: did not cause any death or body weight loss
[14]
  CHOP level: stimulated
  phosphorylated PERK level: significant up-regulation
  phosphorylated eIF2α level: stimulated
Chicken CAM
  ex vivo angiogenesis in CAM assay: effective ex vivo anti-angiogenic properties
[15]; 24 h
  expression of TIMP-1: moderately increased
[15]; [18]
  expression level of MMP-9: decreased significantly
  expression level of uPA: decreased significantly
MDA-MB-231; 0.25-1 μM
  growth inhibition at the concentrations of the migration assay: insignificant growth inhibition
MDA-MB-231
  cell growth inhibition, agent alone: insignificant cell growth inhibitory effects
[16]
  cyclin D1/D3 and CDK 4/6 expression: down-regulation
  p15 expression: stimulation

## N#CC(=C(/N)Sc1ccccc1N)/C(C#N)=C(\N)Sc1ccccc1N [Complex U0126, reference compound]
MDA-MB-231 cells [6]
  inhibition of migration, agent alone: notable inhibition
MDA-MB-231 cells [11]
  inhibition of invasion, agent alone: notable inhibition
MDA-MB-231
  cell growth inhibition, agent alone: insignificant cell growth inhibitory effects
